Laboratory results reported in patent US20150079174A1, “ANTIMICROBIAL COMPLEXES” (Matera, LDA, priority 2012, published 2015).
Like-named read-outs stand apart in the source and are kept apart here. Values belong to the compound of their own block, whether it stands above or below them.

How the values were obtained:
[1] = Critical micelle concentration (CMC) with fluorescent probe N-phenyl-1-naphthylamine; assay type: physicochemical; conditions: surfactant in PBS pH 7.4
Description: Critical Micelle Concentration (CMC) was determined for a range of surfactants, following the method described by Brito et al. ‘Determination of the critical micelle concentration of surfactants using the fluorescent probe N-phenyl-1-naphthylamine.’ Anal. Biochem 1986 (152) 250-255.
Briefly, the surfactants were dissolved in PBS (pH 7.4), serially diluted and mixed with N-phenyl-1-naphthylamine (NPN; TCI). The fluorescence of each sample was quantified (excitation at 350 nm; emission at 420 nm) and plotted against the concentration of each surfactant. The CMC was found at the intersection of two straight lines traced on the emission intensity plot, defining the aqueous and micellar environments.
The evolution of SWCNTs resuspension was performed by optical density measurement (at 600 nm) on a microplate reader. N-phenyl-1-naphthylamine (NPN) (Sigma-Aldrich) was used to determine the DDAB critical micelle concentration (CMC) and the presence of micelles on the SWCNT suspension. A solution of NPN of 2×10^−1 M in ethanol was prepared and further diluted in PBS to the working concentration of 2×10^−4 M. DDAB or SWCNT-DDAB suspensions were mixed in equal volumes on a opaque 96-well plate and the fluorescence measured with the assistance of a SpectraMax Fluoremeter using an excitation and emission wavelength of 320 and 450 nm, respectively.

[2] = test system: Candida albicans ATCC 10231; assay: Minimal inhibitory concentration (growth kinetics at 600 nm / broth microdilution); conditions: for MIC: Candida albicans, ATCC10231, 18 h
[3] = test system: Staphylococcus aureus ATCC 6538; assay: as above; conditions: for MIC: Staphylococcus aureus, ATCC6538, 18 h
[4] = test system: Escherichia coli ATCC 25922; assay: as above; conditions: for MIC: Escherichia coli, ATCC25922, 18 h
[5] = read-out: MIC S. aureus, soluble surfactant, 15.6 to 500 μg/ml, 18 h at 37° C.
[6] = soluble surfactant, 15.6 to 500 μg/ml, 18 h at 37° C.

CMC [1]: 7.8 µg/mL
SMILES: CCCCCCCCCCCCCC[N+](C)(C)CCCCCCCCCCCCCC.[Br-] [DTDAB, ditetradecyldimethylammonium bromide]

CMC [1]: 246.2 µg/mL
MIC [3, 5]: 125 µg/mL
SMILES: CCCCCCCCCCCC[N+](C)(CCCCCCCCCCCC)CCCCCCCCCCCC.[Cl-] [TMAC, tridodecylmethylammonium chloride]

The next lines start with the compound.

SMILES: CCCCCCCCCCCC[N+](C)(C)CCCCCCCCCCCC.[Br-] [DDAB, didodecyldimethylammonium bromide]
CMC [1]: 32.4 µg/mL
MIC ([2]; read-out: MIC C. albicans, soluble surfactant, 62.5 to 500 μg/ml, 18 h at 30° C.): 125 µg/mL
MIC C. albicans ([2]; soluble surfactant, 62.5 to 500 μg/ml, 18 h at 30° C.): 250 µg/mL
MIC [3, 5]: 31.2 µg/mL
MIC S. aureus [3, 6]: 31.3 µg/mL
MIC ([4]; read-out: MIC E. coli): 125 µg/mL

SMILES: CCCCCCCCCCCCCCCC[N+](C)(C)CCCCCCCCCCCCCCCC.[Br-] [DHDAB, dihexadecyldimethylammonium bromide]
CMC [1]: 5.2 µg/mL

SMILES: CCCCCCCCCCCC[N+](C)(C)C.[Br-] [DTAB, dodecyltrimethylammonium bromide]
CMC [1]: 3515.1 µg/mL
MIC ([2]; read-out: MIC C. albicans): 250 µg/mL
MIC ([3]; read-out: MIC S. aureus): 31.2 µg/mL
MIC ([4]; read-out: MIC E. coli, soluble surfactant, 15.6 to 500 μg/ml, 18 h at 37° C.): 125 µg/mL
MIC E. coli [4, 6]: 62.5 µg/mL
